Test results taken from publication PMC4593063 (Bioorganic & medicinal chemistry letters, 2015).

How the values were obtained:
[1] = 19F NMR hydration study in aqueous solution; type: physicochemical; conditions: pH 7.7, 24 h
WT AgAChE = WT AgAChE (Anopheles gambiae, UniProt Q869C3); test: modified Ellman assay, WT AgAChE inhibition; type: biochemical
G119S AgAChE [2] = molecular target: G119S AgAChE (Anopheles gambiae, UniProt Q869C3, G280S); type: biochemical; conditions: 60 min incubation
An. gambiae [3] = test: injection toxicity; type: in vivo, Anopheles gambiae; conditions: injection into mosquito thorax
G119S AgAChE [4] = type: biochemical, Anopheles gambiae; conditions: 5g: 60 min incubation; dichlorvos: time not stated
[5] = tested on: susceptible (G3) strain adult An. gambiae; test: tarsal contact toxicity, WHO treated paper protocol; type: in vivo, Anopheles gambiae; conditions: 40% mortality at 1000 μg/mL vs propoxur LC50 39 μg/mL
[6] = evaporative weight loss at room temperature; type: physicochemical; conditions: open 1 dram vial, fume hood
An. gambiae [7] = test: fumigation toxicity assay; design: species or system Anopheles gambiae; conditions: in vivo

| Compound | % hydrated (19F NMR) [1] | Injection mortality at 50 ng/insect (An. gambiae [3]) | % mass lost by evaporation ([6]; 1 day) | % mass lost by evaporation ([6]; 6 days) | % mass lost by evaporation ([6]; 12 days) | further results |
| --- | --- | --- | --- | --- | --- | --- |
| CC(C)Cn1cc(C(=O)CF)cn1 [Compound 10i] | < 5% |  |  |  |  |  |
| CCC(CC)n1cc(C(=O)C(F)F)cn1 [Compound 9g] |  | 65 ± 4% |  |  |  | WT AgAChE inhibition (IC50) as summarised in text (WT AgAChE; incubation time not specified): single digit nanomolar; G119S AgAChE IC50 fold lower than that of dichlorvos (G119S AgAChE [2]): 2 fold; G119S AgAChE IC50 fold lower than that of trifluoromethyl ketone 5g (G119S AgAChE [2]): 13 fold |
| CC(C)Cn1cc(C(=O)C(F)F)cn1 [Compound 9i] | 22% |  |  |  |  |  |
| CC(C)(C)c1cccc(C(=O)C(F)(F)F)c1 [Compound 5c] | 88% |  |  |  |  |  |
| CCC(CC)n1cc(C(=O)CF)cn1 [Compound 10g] |  | 21 ± 8% |  |  |  | WT AgAChE IC50 fold higher than that of propoxur (WT AgAChE; 10 minute incubation time): roughly 2 fold |
| CCC(CC)n1cc(C(=O)C(F)(F)F)cn1 [Compound 5g] | 67% | 83 ± 6% | 9 ± 1% | 33 ± 1% | 68 ± 1% | potency at WT AgAChE fold greater than dichlorvos (WT AgAChE): 100 fold; ratio of G119S and WT AgAChE IC50 values (G119S AgAChE [4]): roughly 2,500 fold; tarsal contact toxicity fold lower relative to propoxur [5]: ~ 25 fold; % mass lost by evaporation ([6]; 28 days): 99 ± 1%; fumigation toxicity fold less than dichlorvos (An. gambiae [7]): > 100 fold |
| COP(=O)(OC)OC=C(Cl)Cl [dichlorvos] |  |  | 2 ± 1% | 16 ± 1% | 32 ± 1% | % mass lost by evaporation ([6]; 28 days): 51 ± 1% |
| CNC(=O)Oc1ccccc1OC(C)C [propoxur] |  |  | 0 ±1% | 0 ± 1% | 1 ± 1% | Injection LD50 (An. gambiae [3]; 95% confidence interval in parenthesis): 0.24 (0.20–0.34) ng/insect |
